According to patent EP0522504A1, “2-(2-substituted pyrrolidinylthio)-carbapenem derivatives” (Banyu Pharmaceutical Co., Ltd., priority 1991, dated 1993):
Values after ≈ are worked out from the molar mass of the structure shown. Read-outs that look alike come from different tables or passages of the source.

How the values were obtained:
[1] = system: bacteria; assay: disc diffusion test (method of Bauer et al.), antibacterial potency relative to thienamycin; assay type: cell-based; conditions: ratio to thienamycin (= 1.0) of geometrical average MIC, larger value = higher activity
Description: The antibacterial activities of the compounds of the present invention described in the Examples, as representative examples of the compound of the present invention, were measured by a disc diffusion test by the method of Bauer et al. (Amer. J. Clin. Pathol., vol. 45, p. 493 (1966)). Thienamycin or imipenem was used as the internal standard.
MIC of each test compound was calculated from the diameter of the inhibition ring formed by the disc containing the test compound by using the calculation formula reported by Humphrey and Lightbown (J. Gen. Microbiol., vol. 7, p. 129 (1952)). For each microorganism, a geometrical average of MIC was obtained, and the activity ratio to thienamycin was calculated.
The antibacterial activities are represented by the ratio to thienamycin (= 1.0), whereby the larger the numerical value, the higher the activities.

[2] = target: T1, DHP-I (Homo sapiens, UniProt P16444); assay: DHP-I susceptibility (method by Kropp et al.), ratio to imipenem; assay type: in vitro ADME
T1 sequence (P16444 17-385): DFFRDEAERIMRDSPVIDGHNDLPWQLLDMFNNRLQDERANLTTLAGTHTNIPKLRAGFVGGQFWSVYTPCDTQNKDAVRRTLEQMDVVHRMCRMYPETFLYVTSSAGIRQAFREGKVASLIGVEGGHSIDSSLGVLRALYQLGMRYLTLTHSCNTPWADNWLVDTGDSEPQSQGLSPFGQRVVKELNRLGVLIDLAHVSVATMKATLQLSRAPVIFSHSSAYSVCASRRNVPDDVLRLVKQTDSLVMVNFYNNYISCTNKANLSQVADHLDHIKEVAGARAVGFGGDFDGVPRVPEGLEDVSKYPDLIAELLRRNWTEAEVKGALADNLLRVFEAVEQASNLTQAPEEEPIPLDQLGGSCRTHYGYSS
Source text: The DHP-I susceptibility was quantitatively analyzed by the method by Kropp et al., Antimicrob. Agents Chemother., vol. 22, p.

[3] = system: bacteria; assay: in vitro antibacterial activities, agar plate dilution method (MIC); assay type: cell-based; conditions: Mueller Hinton agar, inoculum 10⁶ CFU/mℓ, 37°C for 16 hours
Description: One platinum loopful of each test microorganism incubated overnight in Mueller Hinton broth, was inoculated to Mueller Hinton agar (inoculum size: 10⁶ CFU/mℓ). Such culture media contained antibacterial agents in various concentrations. After incubation at 37°C for 16 hours, the minimum inhibitory concentrations (MIC: µg/mℓ) were measured.

[4] = ratio to imipenem (=1.0), smaller value = higher stability
[5] = Pseudomonas aeruginosa, 16 h, P. aeruginosa MB 5002, read-out: Minimum Inhibitory Concentration(MIC)
[6] = Pseudomonas aeruginosa, 16 h, P. aeruginosa MB 5178, read-out: Minimum Inhibitory Concentration(MIC)
[7] = Staphylococcus aureus, 209P / NIHJJC1, 16 h, S. aureus 209P NIHJ JC1, read-out: Minimum Inhibitory Concentration(MIC)
[8] = Staphylococcus aureus, 16 h, S. aureus BB 5939 (β-lactamase producing microorganism), read-out: Minimum Inhibitory Concentration(MIC)
[9] = Staphylococcus aureus, 16 h, S. aureus MB 4970, read-out: Minimum Inhibitory Concentration(MIC)

## C[C@@H](O)[C@H]1C(=O)N2C(C(=O)O)=C(SCCN=CN)C[C@H]12 [imipenem, (5R,6S,8R)-3-[[2-(formimidoylamino)ethyl]thio]-6-(1-hydroxyethyl)-7-oxo-1-azabicyclo[3.2.0]hept-2-en-2-carboxylic acid monohydrate, reference compound]
[1]; Meth-R S. aureus
  Relative antibacterial potency to thienamycin: 2.57
[1]; THM-R P.aeruginosa
  Relative antibacterial potency to thienamycin: 2.0
[2]; [4]
  DHP-I susceptibility: 1.0
[2]; the smaller the numerical value, the higher the stability
  DHP-I susceptibility, ratio to imipenem: 1.0
[3]; Pseudomonas aeruginosa, 16 h, read-out: Minimum Inhibitory Concentration(MIC), P. aeruginosa MB 5002
  MIC: 1.56 µg/mL
[3]; Pseudomonas aeruginosa, 16 h, read-out: Minimum Inhibitory Concentration(MIC), P. aeruginosa MB 5178
  MIC: 25 µg/mL
[3]; Staphylococcus aureus, 209P / NIHJJC1, 16 h, read-out: Minimum Inhibitory Concentration(MIC), S. aureus 209P NIHJ JC1
  MIC: < 0.006 µg/mL
[3]; Staphylococcus aureus, 16 h, read-out: Minimum Inhibitory Concentration(MIC), S. aureus BB 5939 (β-lactamase producing microorganism)
  MIC: 6.25 µg/mL
[3]; Staphylococcus aureus, 16 h, read-out: Minimum Inhibitory Concentration(MIC), S. aureus MB 4970
  MIC: 0.012 µg/mL

## C/C(=C/[C@@H]1C[C@H](SC2=C(C(=O)O)N3C(=O)[C@H]([C@@H](C)O)[C@H]3[C@H]2C)CN1)CN.Cl [Example 7, (1R,5S,6S)-2-[(2S,4S)-2-[(Z)-3-amino-2-methyl-1-propenyl]pyrrolidin-4-ylthio]-6-[(R)-1-hydroxyethyl]-1-methyl-1-carbapen-2-em-3-carboxylic acid hydrochloride]
[1]; Meth-R S. aureus
  Relative antibacterial potency to thienamycin: 13.5
[1]; THM-R P.aeruginosa
  Relative antibacterial potency to thienamycin: 31.3
[2]; [4]
  DHP-I susceptibility: <0.05
[3]; [5]
  MIC: 0.78 µg/mL
[3]; [6]
  MIC: 1.56 µg/mL
[3]; [7]
  MIC: < 0.006 µg/mL
[3]; [8]
  MIC: 1.56 µg/mL
[3]; [9]
  MIC: < 0.006 µg/mL

## C[C@@H](O)[C@H]1C(=O)N2C(C(=O)O)=C(S[C@@H]3CN[C@H](/C=C/C(N)=O)C3)[C@H](C)[C@H]12 [BO-2171, (1R,5S,6S)-2-[(2S,4S)-2-[(E)-2-(aminocarbonyl)vinyl]pyrrolidin-4-ylthio]-6-[(R)-1-hydroxyethyl]-1-methyl-1-carbapen-2-em-3-carboxylic acid, reference compound]
[1]; Meth-R S. aureus
  Relative antibacterial potency to thienamycin: 7.68
[1]; THM-R P.aeruginosa
  Relative antibacterial potency to thienamycin: 3.28
[2]
  DHP-I susceptibility: 0.3
[3]; [5]
  MIC: 6.25 µg/mL (≈ 16.4 µM)
[3]; [6]
  MIC: 12.5 µg/mL (≈ 32.8 µM)
[3]; [7]
  MIC: 0.025 µg/mL (≈ 0.0655 µM)
[3]; [8]
  MIC: 6.25 µg/mL (≈ 16.4 µM)
[3]; [9]
  MIC: 0.025 µg/mL (≈ 0.0655 µM)

## C[C@@H](O)[C@H]1C(=O)N2C(C(=O)O)=C(S[C@@H]3CN[C@H](/C=C\CN)C3)[C@H](C)[C@H]12 [Example 2, (1R,5S,6S)-2-[(2S,4S)-2-[(Z)-3-amino-1-propenyl]pyrrolidin-4-ylthio]-6-[(R)-1-hydroxyethyl]-1-methyl-1-carbapen-2-em-3-carboxylic acid]
[1]; Meth-R S. aureus
  Relative antibacterial potency to thienamycin: 12.9
[1]; THM-R P.aeruginosa
  Relative antibacterial potency to thienamycin: 15.2
[2]
  DHP-I susceptibility: <0.05
[3]; [5]
  MIC: 0.78 µg/mL (≈ 2.12 µM)
[3]; [6]
  MIC: 1.56 µg/mL (≈ 4.25 µM)
[3]; [7]
  MIC: < 0.006 µg/mL
[3]; [8]
  MIC: 1.56 µg/mL (≈ 4.25 µM)
[3]; [9]
  MIC: 0.012 µg/mL (≈ 0.0327 µM)

## CNC/C(C)=C\[C@@H]1C[C@H](SC2=C(C(=O)O)N3C(=O)[C@H]([C@@H](C)O)[C@H]3[C@H]2C)CN1.Cl [Example 9, (1R,5S,6S)-6-[(R)-1-hydroxyethyl]-2-[(2S,4S)-2-[(Z)-3-(N-methylamino)-2-methyl-1-propenyl]pyrrolidin-4-ylthio]-1-methyl-1-carbapen-2-em-3-carboxylic acid hydrochloride]
[1]; Meth-R S. aureus
  Relative antibacterial potency to thienamycin: 19.7
[1]; THM-R P.aeruginosa
  Relative antibacterial potency to thienamycin: 13.4
[2]; [4]
  DHP-I susceptibility: 0.10
[3]; [5]
  MIC: 0.78 µg/mL
[3]; [6]
  MIC: 3.13 µg/mL
[3]; [7]
  MIC: < 0.006 µg/mL
[3]; [8]
  MIC: 1.56 µg/mL
[3]; [9]
  MIC: < 0.006 µg/mL
